Reference: ChEMBL document CHEMBL1201861, “Genomics of Drug Sensitity in Cancer screening data, Wellcome Trust Sanger Institute”

What was measured:
Experiment in all cases: cells
Assay type in all cases: functional, cell-based, Homo sapiens
COLO-829 = conditions: Homo sapiens, COLO-829
Description: SANGER: Inhibition of human COLO-829 cell growth in a cell viability assay.

D-392MG = conditions: Homo sapiens, D-392MG
DB = conditions: Homo sapiens, DB
Description: SANGER: Inhibition of human DB cell growth in a cell viability assay.

DEL = conditions: Homo sapiens, DEL;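 note: growth inhibition of the human DEL cell line, read out with a cell viability assay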
Description: SANGER: Inhibition of human DEL cell growth in a cell viability assay.

DOHH-2 = conditions: Homo sapiens, DOHH-2;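 note: growth inhibition of human DOHH-2 cells, read out with a cell viability assay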
Description: SANGER: Inhibition of human DOHH-2 cell growth in a cell viability assay.

EC-GI-10 = conditions: Homo sapiens, EC-GI-10
Description: SANGER: Inhibition of human EC-GI-10 cell growth in a cell viability assay.

EKVX = conditions: Homo sapiens, EKVX;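 note: growth inhibition of human EKVX cells, read out with a cell viability assay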
Description: SANGER: Inhibition of human EKVX cell growth in a cell viability assay.

ES4 = conditions: Homo sapiens, ES4;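 note: growth inhibition of human ES4 cells, read out by a cell viability assay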
Description: SANGER: Inhibition of human ES4 cell growth in a cell viability assay.

EW-18 = conditions: Homo sapiens, EW-18;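 note: growth inhibition of EW-18 cells, read out by a cell viability assay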
Description: SANGER: Inhibition of human EW-18 cell growth in a cell viability assay.

EW-24 = conditions: Homo sapiens, EW-24;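 note: human EW-24 cancer cell line, growth inhibition read out via a cell viability assay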
Description: SANGER: Inhibition of human EW-24 cell growth in a cell viability assay.

GR-ST = conditions: Homo sapiens, GR-ST
Description: SANGER: Inhibition of human GR-ST cell growth in a cell viability assay.

HCC1187 = conditions: Homo sapiens, HCC1187;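 note: growth inhibition of HCC1187 cells, read out with a cell viability assay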
Description: SANGER: Inhibition of human HCC1187 cell growth in a cell viability assay.

HCC2218 = conditions: Homo sapiens, HCC2218;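 note: cell viability assay read-out, with IC50 given as the concentration that inhibits growth of the cell line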
Description: SANGER: Inhibition of human HCC2218 cell growth in a cell viability assay.

HT-144 = conditions: Homo sapiens, HT-144
Description: SANGER: Inhibition of human HT-144 cell growth in a cell viability assay.

IST-SL1 = conditions: Homo sapiens, IST-SL1;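 note: growth inhibition of human IST-SL1 cells, read out with a cell viability assay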
Description: SANGER: Inhibition of human IST-SL1 cell growth in a cell viability assay.

J-RT3-T3-5 = conditions: Homo sapiens, J-RT3-T3-5;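 note: cell viability assay measuring growth inhibition of human J-RT3-T3-5 cells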
Description: SANGER: Inhibition of human J-RT3-T3-5 cell growth in a cell viability assay.

JVM-3 = conditions: Homo sapiens, JVM-3;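 note: growth inhibition of human JVM-3 cells, read out with a cell viability assay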
Description: SANGER: Inhibition of human JVM-3 cell growth in a cell viability assay.

KALS-1 = conditions: Homo sapiens, KALS-1;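 note: growth inhibition of KALS-1 cells, determined with a cell viability assay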
Description: SANGER: Inhibition of human KALS-1 cell growth in a cell viability assay.

KARPAS-45 = conditions: Homo sapiens, KARPAS-45;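 note: inhibition of cell line growth, read out through a viability assay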
Description: SANGER: Inhibition of human KARPAS-45 cell growth in a cell viability assay.

KE-37 = conditions: Homo sapiens, KE-37;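 note: growth inhibition of KE-37 cells, read out with a cell viability assay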
Description: SANGER: Inhibition of human KE-37 cell growth in a cell viability assay.

KGN = conditions: Homo sapiens, KGN;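 note: growth inhibition of KGN cells, read out with a cell viability assay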
Description: SANGER: Inhibition of human KGN cell growth in a cell viability assay.

KINGS-1 = conditions: Homo sapiens, KINGS-1;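 note: cell viability assay measuring suppression of KINGS-1 cell growth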
Description: SANGER: Inhibition of human KINGS-1 cell growth in a cell viability assay.

LB373-MEL-D = conditions: Homo sapiens, LB373-MEL-D;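 note: growth inhibition of the cell line, read out in a cell viability assay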
Description: SANGER: Inhibition of human LB373-MEL-D cell growth in a cell viability assay.

LS-1034 = conditions: Homo sapiens, LS-1034
Description: SANGER: Inhibition of human LS-1034 cell growth in a cell viability assay.

MFH-ino = conditions: Homo sapiens, MFH-ino;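 note: growth inhibition of human MFH-ino cells, read out by a cell viability assay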
Description: SANGER: Inhibition of human MFH-ino cell growth in a cell viability assay.

MMAC-SF = conditions: Homo sapiens, MMAC-SF;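 note: growth inhibition of human MMAC-SF cells, read out with a cell viability assay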
Description: SANGER: Inhibition of human MMAC-SF cell growth in a cell viability assay.

MN-60 = conditions: Homo sapiens, MN-60;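 note: growth inhibition of the MN-60 cell line, determined with a cell viability assay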
Description: SANGER: Inhibition of human MN-60 cell growth in a cell viability assay.

MOLT-16 = conditions: Homo sapiens, MOLT-16;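 note: growth inhibition of human MOLT-16 cells, read out with a cell viability assay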
Description: SANGER: Inhibition of human MOLT-16 cell growth in a cell viability assay.

NB5 = conditions: Homo sapiens, NB5;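 note: growth inhibition of NB5 cells, read out as cell viability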
Description: SANGER: Inhibition of human NB5 cell growth in a cell viability assay.

NCI-H1355 = conditions: Homo sapiens, NCI-H1355;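 note: growth inhibition of human NCI-H1355 cells, read out by a cell viability assay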
Description: SANGER: Inhibition of human NCI-H1355 cell growth in a cell viability assay.

NCI-H1581 = conditions: Homo sapiens, NCI-H1581;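 note: cell growth inhibition read out by a viability assay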
Description: SANGER: Inhibition of human NCI-H1581 cell growth in a cell viability assay.

NCI-H1648 = conditions: Homo sapiens, NCI-H1648;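 note: cell viability assay measuring inhibition of NCI-H1648 cell growth, from the Sanger screening data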
Description: SANGER: Inhibition of human NCI-H1648 cell growth in a cell viability assay.

SNU1 = conditions: Homo sapiens, SNU1;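 note: growth inhibition of human NCI-SNU-1 cells, measured with a cell viability assay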
Description: SANGER: Inhibition of human NCI-SNU-1 cell growth in a cell viability assay.

NOMO-1 = conditions: Homo sapiens, NOMO-1;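 note: growth inhibition of human NOMO-1 cells measured by a cell viability assay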
Description: SANGER: Inhibition of human NOMO-1 cell growth in a cell viability assay.

RH-1 = conditions: Homo sapiens, RH-1;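 note: growth inhibition of human RH-1 cells, read out with a cell viability assay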
Description: SANGER: Inhibition of human RH-1 cell growth in a cell viability assay.

RKO = conditions: Homo sapiens, RKO;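 note: growth inhibition of human RKO cells, read out with a cell viability assay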
Description: SANGER: Inhibition of human RKO cell growth in a cell viability assay.

RXF 393 = conditions: Homo sapiens, RXF 393;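 note: growth inhibition of human RXF 393 cells, read out with a cell viability assay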
Description: SANGER: Inhibition of human RXF393 cell growth in a cell viability assay.

Ramos-2G6-4C10 = conditions: Homo sapiens, Ramos-2G6-4C10;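 note: growth inhibition of the cell line, measured by a cell viability read-out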
Description: SANGER: Inhibition of human Ramos-2G6-4C10 cell growth in a cell viability assay.

SF-268 = conditions: Homo sapiens, SF-268;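 note: growth inhibition of SF-268 cells determined with a cell viability assay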
Description: SANGER: Inhibition of human SF268 cell growth in a cell viability assay.

SNB-75 = conditions: Homo sapiens, SNB-75;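 note: cell viability assay measuring growth inhibition of human SNB-75 cells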
Description: SANGER: Inhibition of human SNB75 cell growth in a cell viability assay.

SW684 = conditions: Homo sapiens, SW684;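 note: growth inhibition of human SW684 cells, measured by a cell viability assay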
Description: SANGER: Inhibition of human SW684 cell growth in a cell viability assay.

A101D = conditions: Homo sapiens, A101D;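 note: growth inhibition of the cell line, measured with a viability assay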
Description: SANGER: Inhibition of human A101D cell growth in a cell viability assay.

A253 cell line = conditions: Homo sapiens, A253;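 note: growth inhibition of A253 cells, read out with a cell viability assay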
Description: SANGER: Inhibition of human A253 cell growth in a cell viability assay.

BB30-HNC = conditions: Homo sapiens, BB30-HNC;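 note: growth inhibition of the cultured cell line, read out by a cell viability assay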
Description: SANGER: Inhibition of human BB30-HNC cell growth in a cell viability assay.

C2BBe1 = conditions: Homo sapiens, C2BBe1;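 note: growth inhibition of C2BBe1 cells, read out through a viability assay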
Description: SANGER: Inhibition of human C2BBe1 cell growth in a cell viability assay.

no-10 = conditions: Homo sapiens;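 note: growth inhibition of no-10 cells, read out with a cell viability assay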
Description: SANGER: Inhibition of human no-10 cell growth in a cell viability assay.

CCRF-CEM = conditions: Homo sapiens, CCRF-CEM;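 note: inhibition of CCRF-CEM cell growth, measured by a cell viability assay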
Description: SANGER: Inhibition of human CCRF-CEM cell growth in a cell viability assay.

COLO-320-HSR = conditions: Homo sapiens, COLO-320-HSR;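 note: growth inhibition of COLO-320-HSR cells, determined with a cell viability assay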
Description: SANGER: Inhibition of human COLO-320-HSR cell growth in a cell viability assay.

COc1cc2ncn(-c3cc(OCc4ccccc4S(C)(=O)=O)c(C#N)s3)c2cc1OC [GSK-319347A]
IC50 (COLO-829): > 5 µM | IC50 (D-392MG): > 5 µM | IC50 (DB): > 5 µM | IC50 (DEL): > 5 µM | IC50 (DOHH-2): > 5 µM | IC50 (EC-GI-10): > 5 µM | IC50 (EKVX): > 5 µM | IC50 (ES4): > 5 µM | IC50 (EW-18): > 5 µM | IC50 (EW-24): > 5 µM | IC50 (GR-ST): > 5 µM | IC50 (HCC1187): > 5 µM | IC50 (HCC2218): > 5 µM | IC50 (HT-144): > 5 µM | IC50 (IST-SL1): > 5 µM | IC50 (J-RT3-T3-5): > 5 µM | IC50 (JVM-3): > 5 µM | IC50 (KALS-1): > 5 µM | IC50 (KARPAS-45): > 5 µM | IC50 (KE-37): > 5 µM | IC50 (KGN): > 5 µM | IC50 (KINGS-1): > 5 µM | IC50 (LB373-MEL-D): > 5 µM | IC50 (LS-1034): > 5 µM | IC50 (MFH-ino): > 5 µM | IC50 (MMAC-SF): > 5 µM | IC50 (MN-60): > 5 µM | IC50 (MOLT-16): > 5 µM | IC50 (NB5): > 5 µM | IC50 (NCI-H1355): > 5 µM | IC50 (NCI-H1581): > 5 µM | IC50 (NCI-H1648): > 5 µM | IC50 (SNU1): > 5 µM | IC50 (NOMO-1): > 5 µM | IC50 (RH-1): > 5 µM | IC50 (RKO): > 5 µM | IC50 (RXF 393): > 5 µM | IC50 (Ramos-2G6-4C10): > 5 µM | IC50 (SF-268): > 5 µM | IC50 (SNB-75): > 5 µM | IC50 (SW684): > 5 µM | IC50 (A101D): > 5 µM | IC50 (A253 cell line): > 5 µM | IC50 (BB30-HNC): > 5 µM | IC50 (C2BBe1): > 5 µM | IC50 (no-10): > 5 µM | IC50 (CCRF-CEM): > 5 µM | IC50 (COLO-320-HSR): > 5 µM

CC[C@H](CO)Nc1nc(NCc2ccccc2)c2ncn(C(C)C)c2n1 [SELICICLIB]
IC50 (COLO-829): > 16 µM | IC50 (D-392MG): > 16 µM | IC50 (DB): > 16 µM | IC50 (DEL): > 16 µM | IC50 (DOHH-2): > 16 µM | IC50 (EC-GI-10): > 16 µM | IC50 (EKVX): > 16 µM | IC50 (ES4): > 16 µM | IC50 (EW-18): > 16 µM | IC50 (EW-24): > 16 µM | IC50 (GR-ST): > 16 µM | IC50 (HCC1187): > 16 µM | IC50 (HCC2218): > 16 µM | IC50 (HT-144): > 16 µM | IC50 (IST-SL1): > 16 µM | IC50 (J-RT3-T3-5): > 16 µM | IC50 (JVM-3): > 16 µM | IC50 (KALS-1): > 16 µM | IC50 (KARPAS-45): > 16 µM | IC50 (KE-37): > 16 µM | IC50 (KGN): > 16 µM | IC50 (KINGS-1): > 16 µM | IC50 (LB373-MEL-D): > 16 µM | IC50 (LS-1034): > 16 µM | IC50 (MFH-ino): > 16 µM | IC50 (MMAC-SF): > 16 µM | IC50 (MN-60): > 16 µM | IC50 (MOLT-16): > 16 µM | IC50 (NB5): > 16 µM | IC50 (NCI-H1355): > 16 µM | IC50 (NCI-H1581): > 16 µM | IC50 (NCI-H1648): > 16 µM | IC50 (SNU1): > 16 µM | IC50 (NOMO-1): > 16 µM | IC50 (RH-1): > 16 µM | IC50 (RKO): > 16 µM | IC50 (RXF 393): > 16 µM | IC50 (Ramos-2G6-4C10): > 16 µM | IC50 (SF-268): > 16 µM | IC50 (SNB-75): > 16 µM | IC50 (SW684): > 16 µM | IC50 (A101D): > 16 µM | IC50 (A253 cell line): > 16 µM | IC50 (BB30-HNC): > 16 µM | IC50 (C2BBe1): > 16 µM | IC50 (no-10): > 16 µM | IC50 (CCRF-CEM): > 16 µM | IC50 (COLO-320-HSR): > 16 µM
